Experimental data published in patent US20120238532A1, “TREATMENT OF HUMAN OSTEOSARCOMA” (CEDARS-SINAI MEDICAL CENTER, priority 2009, published 2012).

What was measured:
Serum chemistry in mice = assay type: in vivo; settings: day 35
Protocol: (§2) Whole blood samples were obtained by submandibular bleeding and serum samples were harvested with serum separator tubes (BD Biosciences). Blood count and serum chemistry results were obtained by the Hemagen Analyst Benchtop Chemistry System (Hemagen Diagnostics, Inc. Columbia, Md.). Colony-forming cell (CFC) assays were performed as previously described (18).

[1] = system: phospho-mTOR (S2448) and survivin; assay: Western blots from snap-frozen xenograft tumors; assay type: in vivo; settings: mice treated with LD-CuB, day 35
Protocol: Changes in protein level by CuB were checked by Western blotting. […] After 2, 9, and 20 hours of exposure, cells were harvested and immediately lysed with RIPA buffer (Millipore—Upstate, Temecula, Calif.) supplemented with protease inhibitor cocktail (Roche, San Francisco, Calif.), 0.5 mM PMSF (Roche), and 50 mM NaF (Sigma). After 20 minutes of incubation on ice, protein concentrations were measured by Bradford assay with Bio Rad protein assay solution (Bio-Rad, Hercules, Calif.) and samples were adjusted to the same protein concentration. Samples were mixed with 2× Laemmli sample buffer (Bio-Rad) with 5% β-mercaptoethanol (Sigma) and incubated at 95° C. for 10 min to denature the protein. After brief incubation on ice, proteins were separated by SDS-PAGE, transferred to nitrocellulose membrane (Sigma), and blotted with antibodies from either Cell Signaling Technology (Danvers, Mass.) or Santa Cruz Biotechnology (Santa Cruz, Calif.). […]
All animal experiments strictly followed the guidelines of Cedars-Sinai Medical Center and the National Institute of Health (NIH). […] After 24 hours, tumor size was measured, and any outliers were ruled out by one-way analysis of variance (ANOVA) test. […] Body weights were monitored every 2 days. Tumor size was measured every 2 days, and the tumor volume was calculated using the following formula: A (length)×B (width)×C (height)×0.5236 (16). […]

Blood counts in mice = assay type: in vivo; settings: day 35
Protocol: as §2

MG-63 cells [2] = assay: Annexin V-FITC apoptosis assay, MG-63; assay type: cell-based, human; settings: at ED50, 72 hours of exposure
Protocol: Cells were harvested and fixed with 70% ethanol at regular time intervals. Fixed cells were stained with propidium iodide (PI) for flow cytometry analysis using BD FACScan (BD Biosciences, San Jose, Calif.). Distribution of cell cycle was analyzed by ModFit LT V2.0 software (Verity Software House, Topsham, Me.). […] After 24, 48, and 72 hours of exposure, cells were harvested and stained with PI and fluorescein isothiocyanate (FITC) using Annexin V-FITC apoptosis detection kit (BD Biosciences) according to the manufacturer's protocol. Cells were subjected to flow cytometry analysis within one hour of staining.

ERK protein = target: T1, ERK protein (Homo sapiens, UniProt P28482); assay: DARTS analysis, ERK; assay type: binding; settings: MG-63 lysates; data not shown
T1 construct: confluent MG-63 cells were harvested and lysed with lysis buffer; endogenous in cells; host or cells: MG-63 whole-cell lysate
T1 sequence (P28482 2-360 limits assumed): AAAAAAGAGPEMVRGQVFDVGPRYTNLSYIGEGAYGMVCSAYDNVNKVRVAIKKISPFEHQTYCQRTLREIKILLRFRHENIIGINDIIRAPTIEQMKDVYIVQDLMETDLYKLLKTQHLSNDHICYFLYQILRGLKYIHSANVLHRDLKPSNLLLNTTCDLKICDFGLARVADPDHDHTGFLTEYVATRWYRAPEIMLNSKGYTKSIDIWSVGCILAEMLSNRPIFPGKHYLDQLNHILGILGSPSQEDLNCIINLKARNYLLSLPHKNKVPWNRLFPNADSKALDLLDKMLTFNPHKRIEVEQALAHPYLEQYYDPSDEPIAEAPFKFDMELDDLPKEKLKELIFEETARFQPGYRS

MG-63 cells [3] = assay: Morphological changes (crystal violet staining), MG-63; assay type: cell-based, human
Protocol: (§1) FIG. 2. (A) Graphical representation of the effect of CuB on MG-63 and SAOS-2 cells. Cells were exposed to CuB at their ED50 (70 nM for MG-63 and 50 nM for SAOS-2 cells). Time-dependent antiproliferative activity of CuB on MG-63 and SAOS-2 cells measured by pulse-exposure experiments. Cells were exposed to CuB for 2, 9, or 20 hours, washed extensively, and cultured in the absence of CuB for an additional 24, 48, and 72 hours. Cell growth was measured by MTT assay. Measurements were repeated in triplicates. Data represent mean±SD. Asterisks (**) represent p<0.001 vs DMSO control by t-test. (B) Morphological changes of MG-63 and SAOS-2 cells after exposure to cucurbitacin B. Cells with normal morphology (top) were compared to rounded cells (middle) and multinucleated cells (bottom). […] Representative cells are shown. 400×; scale bar=50 μm. (C) Graphical representation of G2/M cell cycle arrest after 20 hours of exposure to cucurbitacin B. Cells were stained with propidium iodide (PI) and analyzed by FACS. (D) Graphical representation of apoptosis after 72 hours of exposure to cucurbitacin B. Cells were stained with PI and Annexin V-FITC, and analyzed by FACS.

Akt = assay: Western blotting, Akt phosphorylation; assay type: cell-based, human; settings: MG-63 cells
Protocol: Changes in protein level by CuB were checked by Western blotting. […] After 2, 9, and 20 hours of exposure, cells were harvested and immediately lysed with RIPA buffer (Millipore—Upstate, Temecula, Calif.) supplemented with protease inhibitor cocktail (Roche, San Francisco, Calif.), 0.5 mM PMSF (Roche), and 50 mM NaF (Sigma). After 20 minutes of incubation on ice, protein concentrations were measured by Bradford assay with Bio Rad protein assay solution (Bio-Rad, Hercules, Calif.) and samples were adjusted to the same protein concentration. Samples were mixed with 2× Laemmli sample buffer (Bio-Rad) with 5% β-mercaptoethanol (Sigma) and incubated at 95° C. for 10 min to denature the protein. After brief incubation on ice, proteins were separated by SDS-PAGE, transferred to nitrocellulose membrane (Sigma), and blotted with antibodies from either Cell Signaling Technology (Danvers, Mass.) or Santa Cruz Biotechnology (Santa Cruz, Calif.). Target proteins were visualized by Supersignal West Dura Substrate (Thermo-Pierce, Rockford, Ill.). GAPDH protein was used as a loading control.

SAOS-2 cells = assay: Morphological changes (crystal violet staining), SAOS-2; assay type: cell-based, human
Protocol: as §1

## CC(=O)OC(C)(C)/C=C/C(=O)[C@](C)(O)[C@H]1[C@H](O)C[C@@]2(C)[C@@H]3CC=C4[C@H](C[C@H](O)C(=O)C4(C)C)[C@]3(C)C(=O)C[C@]12C [CuB, cucurbitacin B]
Serum chemistry in mice; HD-CuB 1.0 mg/kg
  CK: 156.0 ± 33.9 U/l
  albumin: 3.4 ± 0.1 g/dL
  bilirubin: 0.06 ± 0.00 mg/dL
  cholesterol: 172.0 ± 8.5 mg/dL
  creatine: 0.42 ± 0.25 mg/dL
  globulin: 1.6 ± 0.2 g/dL
  total protein: 5.0 ± 0.1 g/dL
  uric acid: 5.5 ± 0.6 mg/dL
Serum chemistry in mice; LD-CuB 0.5 mg/kg
  CK: 140.5 ± 70.0 U/l
  albumin: 3.1 ± 0.1 g/dL
  bilirubin: 0.09 ± 0.04 mg/dL
  cholesterol: 147.0 ± 5.7 mg/dL
  creatine: 0.29 ± 0.05 mg/dL
  globulin: 0.7 ± 0.9 g/dL
  total protein: 3.7 ± 1.0 g/dL
  uric acid: 3.7 ± 0.3 mg/dL
[1]
  phospho-mTOR (S2448) and survivin in tumors: decreased amount of phospho-mTOR (S2448) and its downstream target survivin
Blood counts in mice; HD-CuB 1.0 mg/kg
  Basophils: 0.05 ± 0.07 K/μl
  Eosinophils: 0.15 ± 0.07 K/μl
  Hb: 10.10 ± 0.42 g/dL
  Lymphocytes: 2.90 ± 0.71 K/μl
  Monocytes: 0.35 ± 0.07 K/μl
  Neutrophills: 2.10 ± 0.42 K/μl
  Platelets: 651 ± 52.33 K/μl
  RBCs: 7.78 ± 0.45 M/μl
  WBCs: 5.55 ± 1.34 K/μl
Blood counts in mice; LD-CuB 0.5 mg/kg
  Basophils: 0.00 ± 0.00 K/μl
  Eosinophils: 0.01 ± 0.01 K/μl
  Hb: 9.60 ± 0.85 g/dL
  Lymphocytes: 2.63 ± 0.24 K/μl
  Monocytes: 0.18 ± 0.03 K/μl
  Neutrophills: 1.42 ± 0.30 K/μl
  Platelets: 742 ± 115.97 K/μl
  RBCs: 7.21 ± 1.00 M/μl
  WBCs: 4.23 ± 0.04 K/μl
MG-63 cells [2]
  apoptotic cells: 44%
ERK protein
  protection of ERK protein (DARTS): could not find any evidence that the ERK protein was protected by CuB
MG-63 cells [3]; 2 hour exposure
  morphological changes: Rapid loss of pseudopodia and rounding
MG-63 cells [3]; 9 hour-exposure
  morphological changes: multinuclearity which was not reversed by CuB removal
Akt
  Akt phosphorylation at S473: Inhibition of Akt phosphorylation at S473 was observed in MG-63 cells
SAOS-2 cells; 2 hour exposure
  morphological changes: Rapid loss of pseudopodia and rounding
SAOS-2 cells; 9 hour-exposure
  morphological changes: multinuclearity which was not reversed by CuB removal
